Experimental data: US7745404B2, “Use of calcitonin and calcitonin-like peptides to treat and prevent multiple sclerosis” (Wisconsin Alumni Research Foundation, priority 2002, dated 2010)

Legend:
Assay type in all cases: in vivo
[1] = system: EAE in female C57BL/6J mice; test: EAE in female C57BL/6J mice, calcitonin and Vit D, Example 4; details: for EAE score: female C57BL6J mice, compared to 1 ng Vit D alone (FIG. 5, Table 6); for Incidence: vehicle pump, animals sick/total
Experimental: To determine the effect of calcitonin and Vit D on EAE in C57BL/6J mice, female C57BL/6J mice were maintained on standard chow until eight weeks of age, and then switched to a purified diet containing 0.87% calcium supplemented with 1 ng or 30 ng of 1,25-(OH)2D3 for one week prior to EAE immunization.
(§1) EAE was induced as described above. Mice were injected with 200 ng of B. pertussis toxin on the day of immunization and 48 hours later.
(§2) sCT was prepared as described above. One week after immunization, mice were weighed and the pumps were filled with vehicle or 30 μg/kg per day of sCT of body weight to each mouse. The pumps were surgically placed subcutaneously in the upper back of mice anesthetized with 2% isofluorane. At the end of the study, successful delivery of the sCT was assessed by two methods. First, the fluid volume remaining in the pump reservoirs was measured. Second, the remaining sCT was pooled and intraperitoneally injected into C57BL/6J mice that were not included in the initial study. Serum calcium measurements were taken six hours after injection to determine if sCT maintained its bioactivity throughout the study.
(§3) Mice were examined daily, for over two weeks, for clinical signs of EAE utilizing the following scoring system as described above.
(§4) Blood samples were collected at multiple time-points and prepared and analyzed as described above. Likewise, statistical analysis was performed as noted above.

[2] = Serum calcium in female C57BL/6J mice, Example 4; details: 30 ng Vit D (regardless of whether sCT was provided) compared to 1 ng Vit D
Experimental: (§5) Collected blood samples were centrifuged at 6000 rpm for 15 minutes; followed by another 60-second spin at 14000 rpm. Serum samples were diluted in 0.1% LaCl3 and serum calcium values were measured using a Perkin Elmer atomic absorption spectrometer.
as §4

[3] = system: experimental autoimmune encephalomyelitis (EAE) in female 1α-OH KO mice; test: EAE (murine model of MS) in female 1α-OH KO mice, Example 1
Experimental: (§6) To determine the effect of calcitonin on the murine model of MS, experimental autoimmune encephalomyelitis (EAE), 25-hydroxyvitamin D3-1α-hydroxylase knockout mice (1α-OH KO) were maintained on a purified diet containing 0.87% calcium and 1 ng 1,25-(OH)2D3 (Vit D) for two to three weeks prior to EAE immunization. EAE was induced at six to ten weeks of age by subcutaneous immunization of 200 μg of the immunodominant peptide to myelin oligodendrocyte glycoproprotein (MOG35-55).
(§7) The peptide was synthesized at University of Wisconsin Biotechnology Center using standard 9-fluorenyl-methoxy-carbonyl chemistry. The peptide was dissolved in Freund's complete adjuvant (CFA; Sigma; St. Louis, Mo.) containing 4 mg/ml of heat-inactivated Mycobacterium tuberculosis […] (Difco Laboratories; Detroit, Mich.).
(§8) Mice were injected with 200 ng of Bordetella pertussis toxin (List Biological Laboratories, Campbell, Calif.) on the day of immunization and 48 hours later. The mice were examined daily for clinical signs of EAE utilizing the following scoring system: 0, no sign; 1, limp tail; 2, hindlimb weakness; 3, hindlimb paralysis; 4, forelimb paralysis; 5, moribund or death.
(§9) Salmon calcitonin (sCT; Bachem California; Torrence, Calif.) was dissolved to a concentration of 1 mg/ml in a vehicle containing 150 mM NaCl, 1 mM HCl, and 2% heat inactivated sera. The serum used was from 1α-OH KO mice matched by sex to the group of mice receiving the treatment. SCT was chronically administered using Alzet osmotic minipumps model 1002 (Durect Corp.; Cupertino, Calif.) calibrated to deliver 0.25 μl/hour over a 15 day period.
(§10) Ten days after immunization, mice were weighed and the pumps were filled with either vehicle or sCT diluted to deliver 6 μg/kg of body weight per day to each mouse. The pumps were surgically placed subcutaneously in the upper back of mice anesthetized with 2% isofluorane. At the end of the study, successful delivery of the sCT was assessed by two methods. First, the fluid volume remaining in the pump reservoirs was measured. Second, the remaining sCT was pooled and intraperitoneally injected into 1α-knockout mice that were not included in the initial study. Serum calcium measurements were taken six hours after injection to determine if sCT maintained its bioactivity throughout the study. Blood samples were collected at multiple time-points throughout the study to monitor changes in serum calcium levels. Blood was obtained by the orbital bleed method. Approximately 150 μl was collected per mouse.
(§11) Statistical analysis was performed using the two-tailed Fisher exact probability test on incidence rates and the unpaired Student's t-test on all other measurements. Values of P<0.05 were considered statistically significant.

[4] = system: experimental autoimmune encephalomyelitis (EAE) in male 1α-OH KO mice; test: EAE (murine model of MS) in male 1α-OH KO mice, Example 1
Experimental: as §6, §7, §8, §9, §10, §11

[5] = system: EAE in female C57BL6h mice; test: EAE in female C57BL6h mice, Example 2
Experimental: To determine the effect of calcitonin on EAE in mice, female mice were maintained as described above. The strain of mouse used in this experiment was C57BL6 which was obtained from Harlan Labs and therefore should be designated C57BL6h. The only difference from the experiment above is that these mice were fed a regular chow diet (Formulab Chow 5008, PMI Labdiet).
as §1
as §2, with “vehicle, 6” for “vehicle or 30”, “μg/kg of sCT” for “μg/kg”, “day” for “day of sCT”, “into” for “into C57BL/6J”
Mice were examined daily, for over two weeks, for clinical signs of EAE utilizing the following scoring system described above.
as §4

[6] = system: EAE in female C57BL/6J mice; test: EAE in female C57BL/6J mice, sCT dose levels, Example 3; details: for % Sick / Incidence / Severity / Mean Onset Day: female C57BL/6J mice, standard chow; for Incidence: animals sick/total; for Severity: EAE score 0-5; for Mean Onset Day: days post immunization
From the text: To determine the effect of calcitonin on EAE in C57BL/6J mice (C57BL6 mice from Jackson Labs), female mice were maintained on a standard chow diet prior to and following EAE immunization. The C57BL6J strain was chosen primarily because it is one of the few strains susceptible to MOG-induced EAE, and also because the 1α-KO has been backcrossed into the C57BL6J strain. The diet was changed primarily because the mice being used were wild-type and no longer required the supplemented 1,25(OH)2D3 that the 1α-KO mice do. Additionally, we have typically seen higher incidence rates when animals are maintained on a regular chow diet versus the purified diet.
as §1
sCT was prepared as described above. One week after immunization, mice were weighed and the pumps were filled with vehicle, 6 μg/kg of sCT per day of body weight or 60 μg/kg of sCT per day of body weight to each mouse. The pumps were surgically placed subcutaneously in the upper back of mice anesthetized with 2% isofluorane. At the end of the study, successful delivery of the sCT was assessed by two methods. First, the fluid volume remaining in the pump reservoirs was measured. Second, the remaining sCT was pooled and intraperitoneally injected into C57BL/6J mice that were not included in the initial study. Serum calcium measurements were taken six hours after injection to determine if sCT maintained its bioactivity throughout the study.
as §3
(§12) Blood samples were collected at multiple time-points and prepared and analyzed as described above. Likewise, statistical analysis was as performed as noted above.

[7] = system: EAE in female C57BL/6J mice; test: EAE in female C57BL/6J mice, sCT started prior to immunization, Example 5
Experimental: To determine the effect of calcitonin in C57BL/6J mice on EAE prior to immunization, female mice were maintained on a standard chow diet prior to and following EAE immunization.
as §1
as §2, with “However, two days prior to” for “One week after”, “6” for “30”
Mice were examined daily, for over two weeks, for clinical signs of EAE utilizing the scoring system described above.
as §4

[8] = Serum calcium in 1α-OH KO mice, Example 1; details: 6 μg/kg of calcitonin
Experimental: as §10, §5

[9] = Serum calcium in female C57BL/6J mice, Example 3
Experimental: as §5, §12

[10] = female C57BL/6J, 0.87% calcium diet with 1 ng Vit D
[11] = female C57BL/6J, 0.87% calcium diet with 30 ng Vit D

In the case of C=C1/C(=C\C=C2/CCC[C@]3(C)[C@@H]([C@H](C)CCCC(C)(C)O)CC[C@@H]23)C[C@@H](O)C[C@@H]1O [Vit D, 1α,25-dihydroxyvitamin D3], the EAE score ([1]; 30 ng Vit D) is reported as “delayed and diminished the EAE score”, the “% Sick” value [1, 10] is reported as 67.0% and the Incidence [1, 10] is reported as 6/9 sick. For the same compound, the Severity ([1]; female C57BL/6J, 0.87% calcium diet with 1 ng Vit D, EAE score 0-5) was 2.9 ± 0.9, the “Mean Onset Day” value ([1]; female C57BL/6J, 0.87% calcium diet with 1 ng Vit D, days post immunization) was 15 ± 2 days and the “% Sick” value [1, 11] was 0.0%. For the same compound, the Incidence [1, 11] was 0/8 sick and the serum calcium levels [2] was “elevated”.

With Salmon calcitonin [sCT] the “% Sick” value ([3]; female 1α-KO mice, 0.87% calcium + 1 ng Vitamin D diet, sCT 6 μg/kg per day by minipump from ten days after immunization) was 42.9%, the Severity ([3]; female 1α-KO mice, 0.87% calcium + 1 ng Vitamin D diet, sCT 6 μg/kg per day by minipump, EAE score 0-5) was 1.3 ± 0.6 and the “Mean Onset Day” value ([3]; female 1α-KO mice, 0.87% calcium + 1 ng Vitamin D diet, sCT 6 μg/kg per day by minipump, days post immunization) was 41 ± 11 days. The Incidence ([3]; female 1α-KO mice, 0.87% calcium + 1 ng Vitamin D diet, sCT 6 μg/kg per day by osmotic minipump from ten days after immunization, animals sick/total) was 3/7 sick, the EAE score ([3]; female 1α-OH KO mice, compared to vehicle alone (FIG. 1, Table 2)) was “delayed and diminished the EAE score” and the “% Sick” value ([4]; male 1α-KO mice, 0.87% calcium + 1 ng Vitamin D diet, sCT 6 μg/kg per day by minipump) was 28.6%. For the same compound, the Severity ([4]; male 1α-KO mice, 0.87% calcium + 1 ng Vitamin D diet, sCT 6 μg/kg per day by minipump, EAE score 0-5) was 2.5 ± 0.7, the “Mean Onset Day” value ([4]; male 1α-KO mice, 0.87% calcium + 1 ng Vitamin D diet, sCT 6 μg/kg per day by minipump, days post immunization) was 30 ± 8 days and the Incidence ([4]; male 1α-KO mice, 0.87% calcium + 1 ng Vitamin D diet, sCT 6 μg/kg per day by osmotic minipump from ten days after immunization, animals sick/total) was 2/7 sick. For the same compound, the “reduction in the EAE score, male versus female” value ([4]; male 1α-OH KO mice treated with calcitonin compared with female 1α-OH KO mice treated with calcitonin) was “similar, but lesser, reduction in the EAE score”, the EAE score ([4]; male 1α-OH KO mice, compared to vehicle alone (FIG. 2, Table 3)) was “lowered the EAE score” and the EAE score ([5]; compared to vehicle alone (FIG. 3)) was “delayed and diminished the EAE score”. The “% Sick” value ([5]; sCT 6 μg/kg per day by minipump from one week after immunization) was 25.0%, the Severity ([5]; sCT 6 μg/kg per day by minipump from one week after immunization, EAE score 0-5) was 2.0 ± 0.7 and the “Mean Onset Day” value ([5]; sCT 6 μg/kg per day by minipump from one week after immunization, days post immunization) was 14 ± 1 days. The Incidence ([5]; sCT 6 μg/kg per day by minipump from one week after immunization, table title: 0.87% calcium + 1 ng Vitamin D diet (text: regular chow), animals sick/total) was 2/8 sick, the EAE score ([6]; female C57BL6J mice administered 60 μg/kg of calcitonin, compared to vehicle alone (FIG. 4, Table 5)) was “delayed and diminished the EAE score” and the “% Sick” value ([6]; 6 μg/kg sCT) was 82.0%. For the same compound, the Incidence ([6]; 6 μg/kg sCT per day by minipump from one week after immunization) was 9/11 sick, the Severity ([6]; 6 μg/kg sCT) was 3.8 ± 0.6 and the “Mean Onset Day” value ([6]; 6 μg/kg sCT) was 14 ± 3 days. For the same compound, the “% Sick” value ([6]; 60 μg/kg sCT) was 67.0%, the Incidence ([6]; 60 μg/kg sCT per day by minipump from one week after immunization) was 6/9 sick and the Severity ([6]; 60 μg/kg sCT) was 3.5 ± 1.3. The “Mean Onset Day” value ([6]; 60 μg/kg sCT) was 16 ± 2 days, the EAE score ([1]; sCT (30 μg/kg per day)) was “delayed and diminished the EAE score” and the EAE score ([7]; female C57BL6J mice administered 6 μg/kg of calcitonin from two days prior to immunization, compared to vehicle alone (FIG. 6)) was “delayed and diminished the EAE score”. For the same compound, the Incidence ([7]; female C57Bl/6J mice, standard chow, sCT 6 μg/kg per day by minipump from two days prior to immunization, animals sick/total) was 19/20 sick, the “% Sick” value ([7]; female C57Bl/6J mice, standard chow, sCT 6 μg/kg per day from two days prior to immunization) was 95.0% and the Severity ([7]; female C57Bl/6J mice, standard chow, sCT 6 μg/kg per day from two days prior to immunization, EAE score 0-5) was 2.9 ± 1.1. For the same compound, the “Mean Onset Day” value ([7]; female C57Bl/6J mice, standard chow, sCT 6 μg/kg per day from two days prior to immunization, days post immunization) was 15 ± 2 days, the serum calcium levels ([8]; female 1α-OH KO mice) was “generally unaffected” and the serum calcium levels ([8]; male 1α-OH KO mice) was “unaffected”. For the same compound, the serum calcium levels ([9]; 6 μg/kg of calcitonin) was “initially lowered” and the serum calcium levels ([9]; 60 μg/kg of calcitonin) was “initially lowered”.
